Data published in US4471131A, “Novel silyl esters of N-phosphonomethylglycine” (Monsanto Company, priority 1983, dated 1984).

Columns and labels:
Assay in all cases: post-emergence herbicidal activity, greenhouse
Assay type in all cases: in vivo
Cocklebur = conditions: Table III
How it was run: (§1)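 Candidate chemical is applied by atomizer at the indicated rates to emerged plants of 2–3 weeks, spray containing about 0.4 wt% emulsifier. Effects are judged as injury against unsprayed control pans, approximately two and four weeks post-application.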

Morningglory = system: Morningglory
How it was run: as §1

Yellow Nutsedge = conditions: Table II
How it was run: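 Two- to three-week-old greenhouse plants, raised in soil pans, received a foliar atomizer spray containing roughly 0.4% w/w emulsifier mix. Visual injury versus unsprayed checks was recorded at about 2 and 4 weeks after treatment (WAT).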

Barnyardgrass = system: Barnyardgrass
How it was run: as §1

Soybean = conditions: Table III
How it was run: as §1

[1] = 2 WAT, 1.1 kg/h, formulated in anhydrous tetrahydrofuran
[2] = 2 WAT, 5.6 kg/h, formulated in anhydrous tetrahydrofuran
[3] = 2 WAT, .28 kg/h, formulated in anhydrous tetrahydrofuran
[4] = 4 WAT, 1.1 kg/h, formulated in anhydrous tetrahydrofuran
[5] = 4 WAT, 5.6 kg/h, formulated in anhydrous tetrahydrofuran
[6] = 4 WAT, .28 kg/h, formulated in anhydrous tetrahydrofuran
[7] = Table II, 2 WAT, 5.6 kg/h, formulated in anhydrous tetrahydrofuran
[8] = Table II, 2 WAT, 11.2 kg/h, formulated in anhydrous tetrahydrofuran
[9] = Table II, 4 WAT, 5.6 kg/h, formulated in anhydrous tetrahydrofuran
[10] = Table II, 4 WAT, 11.2 kg/h, formulated in anhydrous tetrahydrofuran
[11] = Table III, 2 WAT, 1.1 kg/h, formulated in anhydrous tetrahydrofuran
[12] = Table III, 2 WAT, 5.6 kg/h, formulated in anhydrous tetrahydrofuran
[13] = Table III, 2 WAT, .28 kg/h, formulated in anhydrous tetrahydrofuran
[14] = Table III, 4 WAT, 1.1 kg/h, formulated in anhydrous tetrahydrofuran
[15] = Table III, 4 WAT, 5.6 kg/h, formulated in anhydrous tetrahydrofuran
[16] = Table III, 4 WAT, .28 kg/h, formulated in anhydrous tetrahydrofuran

CCCCOC(=O)CNCP(=O)(O)O[Si](c1ccccc1)(c1ccccc1)C(C)(C)C [Ex. 6, Glycine, N--((([(1,1-Dimethylethyl)Diphenylsilyl]Oxy)Hydroxyphosphinyl)methyl)-Butyl Ester]
2 (50-74% inhibition): Plant Response Index (B) (Cocklebur; [2]) | Plant Response Index (B) (Cocklebur; 4 WAT, 1.1 kg/h) | Plant Response Index (B) (Cocklebur; [5]) | Plant Response Index (D) (Morningglory; Table II, 2 WAT, 5.6 kg/h) | Plant Response Index (D) (Morningglory; Table II, 2 WAT, 11.2 kg/h) | Plant Response Index (D) (Morningglory; [8]) | Plant Response Index (D) (Morningglory; Table II, 4 WAT, 5.6 kg/h) | Plant Response Index (D) (Morningglory; [9]) | Plant Response Index (D) (Morningglory; Table II, 4 WAT, 11.2 kg/h) | Plant Response Index (D) (Morningglory; [10]) | Plant Response Index (D) (Morningglory; Table III, 2 WAT, 1.1 kg/h) | Plant Response Index (D) (Morningglory; [11]) | Plant Response Index (D) (Morningglory; Table III, 2 WAT, 5.6 kg/h) | Plant Response Index (D) (Morningglory; [12]) | Plant Response Index (D) (Morningglory; Table III, 4 WAT, 1.1 kg/h) | Plant Response Index (D) (Morningglory; [14]) | Plant Response Index (D) (Morningglory; [15]) | Plant Response Index (G) (Yellow Nutsedge; 4 WAT, 11.2 kg/h) | Plant Response Index (K) (Barnyardgrass; Table II, 2 WAT, 11.2 kg/h) | Plant Response Index (K) (Barnyardgrass; Table II, 4 WAT, 5.6 kg/h) | Plant Response Index (K) (Barnyardgrass; [9]) | Plant Response Index (K) (Barnyardgrass; Table III, 2 WAT, 1.1 kg/h) | Plant Response Index (K) (Barnyardgrass; [11]) | Plant Response Index (K) (Barnyardgrass; [12]) | Plant Response Index (K) (Barnyardgrass; Table III, 2 WAT, .28 kg/h) | Plant Response Index (K) (Barnyardgrass; Table III, 4 WAT, 1.1 kg/h) | Plant Response Index (K) (Barnyardgrass; [14]) | Plant Response Index (K) (Barnyardgrass; [15]) | Plant Response Index (L) (Soybean; [2]) | Plant Response Index (L) (Soybean; [5])
0 (0-24% inhibition): Plant Response Index (B) (Cocklebur; 2 WAT, .28 kg/h) | Plant Response Index (G) (Yellow Nutsedge; 2 WAT, 5.6 kg/h) | Plant Response Index (G) (Yellow Nutsedge; [2]) | Plant Response Index (G) (Yellow Nutsedge; 2 WAT, 11.2 kg/h, formulated in anhydrous tetrahydrofuran) | Plant Response Index (K) (Barnyardgrass; [13]) | Plant Response Index (K) (Barnyardgrass; [16]) | Plant Response Index (L) (Soybean; 2 WAT, .28 kg/h)
1 (25-49% inhibition): Plant Response Index (B) (Cocklebur; [1]) | Plant Response Index (B) (Cocklebur; [3]) | Plant Response Index (B) (Cocklebur; [4]) | Plant Response Index (B) (Cocklebur; [6]) | Plant Response Index (D) (Morningglory; [7]) | Plant Response Index (D) (Morningglory; Table III, 2 WAT, .28 kg/h) | Plant Response Index (D) (Morningglory; [13]) | Plant Response Index (D) (Morningglory; [16]) | Plant Response Index (G) (Yellow Nutsedge; 2 WAT, 11.2 kg/h) | Plant Response Index (G) (Yellow Nutsedge; 4 WAT, 5.6 kg/h) | Plant Response Index (G) (Yellow Nutsedge; [5]) | Plant Response Index (G) (Yellow Nutsedge; 4 WAT, 11.2 kg/h, formulated in anhydrous tetrahydrofuran) | Plant Response Index (K) (Barnyardgrass; Table II, 2 WAT, 5.6 kg/h) | Plant Response Index (K) (Barnyardgrass; [7]) | Plant Response Index (K) (Barnyardgrass; [8]) | Plant Response Index (K) (Barnyardgrass; [10]) | Plant Response Index (L) (Soybean; 2 WAT, 1.1 kg/h) | Plant Response Index (L) (Soybean; [1]) | Plant Response Index (L) (Soybean; 2 WAT, 5.6 kg/h) | Plant Response Index (L) (Soybean; [3]) | Plant Response Index (L) (Soybean; 4 WAT, 1.1 kg/h) | Plant Response Index (L) (Soybean; [4]) | Plant Response Index (L) (Soybean; 4 WAT, 5.6 kg/h) | Plant Response Index (L) (Soybean; [6])
3 (75-99% inhibition): Plant Response Index (B) (Cocklebur; 2 WAT, 5.6 kg/h) | Plant Response Index (B) (Cocklebur; 4 WAT, 5.6 kg/h) | Plant Response Index (D) (Morningglory; Table III, 4 WAT, 5.6 kg/h) | Plant Response Index (K) (Barnyardgrass; Table II, 4 WAT, 11.2 kg/h) | Plant Response Index (K) (Barnyardgrass; Table III, 2 WAT, 5.6 kg/h) | Plant Response Index (K) (Barnyardgrass; Table III, 4 WAT, 5.6 kg/h)
